# Data as given in ChEMBL document CHEMBL3046729, “Design, synthesis, and cytotoxic activities of new 2,4,5-triarylimidazoles” (Med Chem Res, 2013).
# What was measured:
# T47D = experiment: Cytotoxicity against Homo sapiens (human) T47D cells assessed as inhibition of cell proliferation after 72 hr by MTT assay; format: functional, cell-based
# MCF7 (Homo sapiens) = experiment: Cytotoxicity against Homo sapiens (human) MCF7 cells assessed as inhibition of cell proliferation after 72 hr by MTT assay; conditions: MCF7, 72 h
# MDA-MB-231 = experiment: Cytotoxicity against Homo sapiens (human) MDA-MB-231 cells assessed as inhibition of cell proliferation after 72 hr by MTT assay; format: functional, cell-based; conditions: MDA-MB-231, 72 h
# MCF7 = experiment: Cytotoxicity against Homo sapiens (human) MCF7 cells assessed as inhibition of cell proliferation after 72 hr by MTT assay; format: functional, cell-based; conditions: MCF7, 72 h
SMILES,IC50 (T47D) [µM],IC50 (MCF7 (Homo sapiens)) [µM],IC50 (MDA-MB-231) [µM],IC50 (MCF7) [µM]
CN(C)CCOc1ccc(-c2nc(-c3ccc(F)cc3)[nH]c2-c2ccccc2)cc1,61,82,,
CC/C(=C(\c1ccccc1)c1ccc(OCCN(C)C)cc1)c1ccccc1 [TAMOXIFEN],12.1,,25.1,55.5
CN(C)CCOc1ccc(-c2nc(-c3ccccc3)[nH]c2-c2ccccc2)cc1,50,,53,
Fc1ccc(-c2nc(-c3ccc(OCCN4CCCCC4)cc3)c(-c3ccccc3)[nH]2)cc1,61,,78,> 100
COc1ccc(-c2nc(-c3ccc(OCCN4CCCCC4)cc3)c(-c3ccccc3)[nH]2)cc1,54,,65,71
COc1ccc(-c2nc(-c3ccc(OCCN(C)C)cc3)c(-c3ccccc3)[nH]2)cc1,28,,42,
Oc1ccc(-c2nc(-c3ccc(OCCN4CCCCC4)cc3)c(-c3ccccc3)[nH]2)cc1,< 0.1,,< 0.1,< 0.1
CN(C)CCOc1ccc(-c2nc(-c3ccc(O)cc3)[nH]c2-c2ccccc2)cc1,63,,70,82
c1ccc(-c2nc(-c3ccc(OCCN4CCCCC4)cc3)c(-c3ccccc3)[nH]2)cc1,< 0.1,,< 0.1,< 0.1
